Laboratory results reported in US4122179A, “Acid addition salts of vincamine and apovincamine” (priority 1976, dated 1978).
Structures can show the parent of a compound that is named as a salt.

Legend:
[1] = tested on: vertebral arteria; test: Cerebral vasodilating activity: hematic flow at the vertebral arteria after i.v. administration; assay type: in vivo; settings: i.v. (femoral vein), 5 mg/kg of vincamine/apovincamine, anesthetized dog, 4 animals per compound
Method: (§1) For the compounds of the present invention a number of pharmacological and pharmacokinetic tests have been carried out. […] As regards the pharmacological and pharmacodynamic activity, it has been studied on the percent variations of the hematic flow, as recorded at the vertebral arteria in the dog after administration of the tested compounds. As regards the pharmacokinetic tests, the compounds were administered per oral route to the Wistar rat, and the hematic levels at different times from the administration were measured.
The cerebral vasodilating activity was studied in the anestetized dog, by measuring, by means of Statham periarterial electromagnetic flowmeters, the hematic flow at the level of the […] which, in such animal species, constitutes the greatest blood supply to the brain.
The resuls are reported in the TABLE 2 (last column) as the percent variations of the flow measured at the level of the ledt vertebral arteria after the i.v. administration of the several compounds to be tested to groups of 4 animals for each compound. The results also confirm that the compounds of the invention are all endowed with a vasodilating activity at the level of the cerebral circulus, such an action being, for some compounds, much more remarkable than that of vincamine and apovincamine.

[2] = Solubility; assay type: physicochemical; settings: qualitative; for solubility in alcohol: alcohol (ethyl alcohol)
[3] = LD50 / acute toxicity, intraperitoneal route; assay type: in vivo; settings: i.p.; for Toxicity (Gleason): Gleason class in words, classes not defined
[4] = Hematic levels at different times after oral administration (absorption); assay type: in vivo, Wistar rat; settings: 100 mg/kg expressed as vincamine/apovincamine, 5% carboxymethyl cellulose suspension
Method: as §1
For the evaluation of the absorption, all the compounds have been orally administered at the dosage of 100 mg/kg, expressed as vincamine and apovincamine, in form of a suspension in a 5% carboxymethyl cellulose solution.
The absorption was determined by evaulating the hematic levels at the following times (minutes) : 0, 30, 120, 240, 480, 10 hours and 12 hours, in order also to assess the time from the administration (max conc.time) the maximum absorption occurred.
The vincamine and apovincamine concentrations were assessed by chromatographic method.
For the evaluation of the prolonged action of the salts and of the adducts of vincamine and apovincamine the following criterium was adopted; as derivatives having a long-acting effect, there are considered those which, 120 minutes after the administration, show hematic levels higher than those obtained with vincamine and apovincamine.

## CC[C@]12CCCN3CCc4c(n(c5ccccc45)[C@@](O)(C(=O)OC)C1)[C@@H]32 [Example 4.a, Vincamine glucose-1-phosphate, acid salt]
[1]; 5 mg/kg
  % increase (percent variation of hematic flow, left vertebral arteria): 26.6%
[2]
  solubility in water: soluble
[3]
  LD50: 700 mg/kg
  Toxicity (Gleason): modest
[4]; 100 mg/kg
  Max. conc. time: 240 min

## CC[C@@]12C=C(C(=O)OC)n3c4c(c5ccccc53)CCN(CCC1)[C@H]42 [Example 29.b, Apovincamine dihydroxyphenylalanine]
[1]; 5 mg/kg
  % increase (percent variation of hematic flow, left vertebral arteria): 41.3%
[2]; solvent not stated
  solubility (solvent not given): insoluble
[3]
  LD50: 900 mg/kg
  Toxicity (Gleason): light
[4]; 100 mg/kg
  Max. conc. time: 120 min

## CC[C@]12CCCN3CCc4c(n(c5ccccc45)[C@@](O)(C(=O)OC)C1)[C@@H]32 [Example 2.a, Vincamine 2,4-dihydroxy-benzoate]
[1]; 5 mg/kg
  % increase (percent variation of hematic flow, left vertebral arteria): 24.8%
[2]
  solubility in alcohol: soluble
[3]
  LD50: 750 mg/kg
  Toxicity (Gleason): modest
[4]; 100 mg/kg
  Max. conc. time: 120 min

## CC[C@@]12C=C(C(=O)OC)n3c4c(c5ccccc53)CCN(CCC1)[C@H]42 [Example 26.b, Apovincamine indolyl-3-acetate]
[1]; 5 mg/kg
  % increase (percent variation of hematic flow, left vertebral arteria): 28.7%
[2]
  solubility in alcohol: poorly soluble
  solubility in water: insoluble
[3]
  LD50: 750 mg/kg
  Toxicity (Gleason): modest
[4]; 100 mg/kg
  Max. conc. time: 120 min

## Vincamine tannate [Example 24.a]
[1]
  % increase (percent variation of hematic flow, left vertebral arteria): 26.2%
[2]
  solubility in alcohol: soluble
[3]
  LD50: 700 mg/kg
  Toxicity (Gleason): modest
[4]
  Max. conc. time: 240 min

## CC[C@@]12C=C(C(=O)OC)n3c4c(c5ccccc53)CCN(CCC1)[C@H]42 [Example 15.b, Apovincamine nicotinate]
[1]; 5 mg/kg
  % increase (percent variation of hematic flow, left vertebral arteria): 28.3%
[2]
  solubility in alcohol: insoluble
  solubility in water: insoluble
[3]
  LD50: 750 mg/kg
  Toxicity (Gleason): modest
[4]; 100 mg/kg
  Max. conc. time: 60 min

## Apovincamine-pectin (1:1 adduct) [Example 30.b]
[1]
  % increase (percent variation of hematic flow, left vertebral arteria): 39.6%
[2]
  solubility in alcohol: little soluble
[3]
  LD50: 750 mg/kg
  Toxicity (Gleason): modest
[4]
  Max. conc. time: 60 min

## CC[C@]12CCCN3CCc4c(n(c5ccccc45)[C@@](O)(C(=O)OC)C1)[C@@H]32 [Example 16.a, Vincamine acetylsalicylate]
[1]; 5 mg/kg
  % increase (percent variation of hematic flow, left vertebral arteria): 31.7%
[2]
  solubility in the common (organic) solvents: poorly soluble
[3]
  LD50: 900 mg/kg
  Toxicity (Gleason): modest
[4]; 100 mg/kg
  Max. conc. time: 20 min

## CC[C@@]12C=C(C(=O)OC)n3c4c(c5ccccc53)CCN(CCC1)[C@H]42 [Example 9.b, Apovincamine clofibrate]
[1]; 5 mg/kg
  % increase (percent variation of hematic flow, left vertebral arteria): 28.3%
[2]
  solubility in alcohol: soluble
  solubility in water: insoluble
[3]
  LD50: 800 mg/kg
  Toxicity (Gleason): light
[4]; 100 mg/kg
  Max. conc. time: 480 min

## CC[C@]12CCCN3CCc4c(n(c5ccccc45)[C@@](O)(C(=O)OC)C1)[C@@H]32 [Example 7.a, Vincamine 3,5-dihydroxybenzoate]
[1]; 5 mg/kg
  % increase (percent variation of hematic flow, left vertebral arteria): 26.3%
[2]
  solubility in alcohol: insoluble
  solubility in water: insoluble
[3]
  LD50: 850 mg/kg
  Toxicity (Gleason): modest
[4]; 100 mg/kg
  Max. conc. time: 240 min

## CC[C@@]12C=C(C(=O)OC)n3c4c(c5ccccc53)CCN(CCC1)[C@H]42 [Example 11.b, Apovincamine 4-acetamidobutyrate]
[1]; 5 mg/kg
  % increase (percent variation of hematic flow, left vertebral arteria): 33.0%
[2]
  solubility in alcohol: insoluble
  solubility in water: insoluble
[3]
  LD50: 1500 mg/kg
  Toxicity (Gleason): light
[4]; 100 mg/kg
  Max. conc. time: 480 min

## CC[C@]12CCCN3CCc4c(n(c5ccccc45)[C@@](O)(C(=O)OC)C1)[C@@H]32 [Example 6.a, Vincamine 2,5-dihydroxybenzoate]
[1]; 5 mg/kg
  % increase (percent variation of hematic flow, left vertebral arteria): 28.0%
[2]
  solubility in alcohol: insoluble
  solubility in water: insoluble
[3]
  LD50: 800 mg/kg
  Toxicity (Gleason): modest
[4]; 100 mg/kg
  Max. conc. time: 120 min

## CC[C@@]12C=C(C(=O)OC)n3c4c(c5ccccc53)CCN(CCC1)[C@H]42 [Example 7.b, Apovincamine 3,5-dihydroxybenzoate]
[1]; 5 mg/kg
  % increase (percent variation of hematic flow, left vertebral arteria): 26.0%
[2]
  solubility in alcohol: soluble
  solubility in water: insoluble
[3]
  LD50: 750 mg/kg
  Toxicity (Gleason): modest
[4]; 100 mg/kg
  Max. conc. time: 240 min

## CC[C@@]12C=C(C(=O)OC)n3c4c(c5ccccc53)CCN(CCC1)[C@H]42 [Example 21.b, Apovincamine caproate]
[1]; 5 mg/kg
  % increase (percent variation of hematic flow, left vertebral arteria): 36.4%
[2]
  solubility in alcohol: insoluble
  solubility in water: insoluble
[3]
  LD50: 1900 mg/kg
  Toxicity (Gleason): light
[4]; 100 mg/kg
  Max. conc. time: 60 min

## CC[C@]12CCCN3CCc4c(n(c5ccccc45)[C@@](O)(C(=O)OC)C1)[C@@H]32 [Example 14.a, Vincamine L(+)-O,O-dibenzoyltartrate]
[1]; 5 mg/kg
  % increase (percent variation of hematic flow, left vertebral arteria): 29.6%
[2]
  solubility in alcohol: poorly soluble
  solubility in the common (organic) solvents: insoluble
  solubility in water: poorly soluble
[3]
  LD50: 950 mg/kg
  Toxicity (Gleason): modest
[4]; 100 mg/kg
  Max. conc. time: 60 min

## CC[C@]12CCCN3CCc4c(n(c5ccccc45)[C@@](O)(C(=O)OC)C1)[C@@H]32 [Example 20.a, Vincamine theophylline-7-acetate]
[1]; 5 mg/kg
  % increase (percent variation of hematic flow, left vertebral arteria): 24.5%
[2]
  solubility in alcohol: soluble
  solubility in the common (organic) solvents: insoluble
  solubility in water: insoluble
[3]
  LD50: 700 mg/kg
  Toxicity (Gleason): modest
[4]; 100 mg/kg
  Max. conc. time: 60 min

## Vincamine-pectin (2:1 adduct) [Example 31.a]
[1]
  % increase (percent variation of hematic flow, left vertebral arteria): 24.9%
[2]
  solubility in the common (organic) solvents: practically insoluble
  solubility in water: practically insoluble
[3]
  LD50: 2000 mg/kg
  Toxicity (Gleason): negligible
[4]
  Max. conc. time: 240 min

## CC[C@@]12C=C(C(=O)OC)n3c4c(c5ccccc53)CCN(CCC1)[C@H]42 [Example 5.b, Apovincamine 2,6-dihydroxybenzoate]
[1]; 5 mg/kg
  % increase (percent variation of hematic flow, left vertebral arteria): 25.4%
[2]
  solubility in alcohol: poorly soluble
  solubility in water: insoluble
[3]
  LD50: 750 mg/kg
  Toxicity (Gleason): modest
[4]; 100 mg/kg
  Max. conc. time: 120 min

## CC[C@@]12C=C(C(=O)OC)n3c4c(c5ccccc53)CCN(CCC1)[C@H]42 [Example 22.b, Apovincamine caprate]
[1]; 5 mg/kg
  % increase (percent variation of hematic flow, left vertebral arteria): 28.2%
[2]
  solubility in alcohol: insoluble
  solubility in water: insoluble
[3]
  LD50: 1900 mg/kg
  Toxicity (Gleason): light
[4]; 100 mg/kg
  Max. conc. time: 240 min

## CC[C@]12CCCN3CCc4c(n(c5ccccc45)[C@@](O)(C(=O)OC)C1)[C@@H]32 [Example 9.a, Vincamine clofibrate (2-(p-chlorophenoxy)-2-methylpropionate)]
[1]; 5 mg/kg
  % increase (percent variation of hematic flow, left vertebral arteria): 22.1%
[2]
  solubility in alcohol: soluble
  solubility in water: insoluble
[3]
  LD50: 900 mg/kg
  Toxicity (Gleason): modest
[4]; 100 mg/kg
  Max. conc. time: 480 min

## CC[C@@]12C=C(C(=O)OC)n3c4c(c5ccccc53)CCN(CCC1)[C@H]42 [Example 4.b, Apovincamine glucose-1-phosphate, acid salt]
[1]; 5 mg/kg
  % increase (percent variation of hematic flow, left vertebral arteria): 26.1%
[2]
  solubility in water: soluble
[3]
  LD50: 600 mg/kg
  Toxicity (Gleason): modest
[4]; 100 mg/kg
  Max. conc. time: 240 min

## CC[C@]12CCCN3CCc4c(n(c5ccccc45)[C@@](O)(C(=O)OC)C1)[C@@H]32 [Example 13.a, Vincamine D(+)-camphorsulfonate]
[1]; 5 mg/kg
  % increase (percent variation of hematic flow, left vertebral arteria): 30.1%
[2]
  solubility in alcohol: poorly soluble
  solubility in the common (organic) solvents: insoluble
  solubility in water: soluble
[3]
  LD50: 1350 mg/kg
  Toxicity (Gleason): light
[4]; 100 mg/kg
  Max. conc. time: 60 min
